# Assay results from publication PMC9535653 (ACS Omega, 2022).
# What was measured:
# Truncated C-domain ACE = assay: fluorimetric ACE activity assay, truncated C-domain; assay type: biochemical; conditions: at micromolar concentrations under identical assay conditions
# N-domain (ACE) = conditions: read-out: Ki, N-domain, ref [20],[21]; cited from earlier work
# C-domain of ACE = conditions: ref [20],[21], cited from earlier work
# Sequence of Truncated C-domain ACE (P12821 643-1222 limits assumed): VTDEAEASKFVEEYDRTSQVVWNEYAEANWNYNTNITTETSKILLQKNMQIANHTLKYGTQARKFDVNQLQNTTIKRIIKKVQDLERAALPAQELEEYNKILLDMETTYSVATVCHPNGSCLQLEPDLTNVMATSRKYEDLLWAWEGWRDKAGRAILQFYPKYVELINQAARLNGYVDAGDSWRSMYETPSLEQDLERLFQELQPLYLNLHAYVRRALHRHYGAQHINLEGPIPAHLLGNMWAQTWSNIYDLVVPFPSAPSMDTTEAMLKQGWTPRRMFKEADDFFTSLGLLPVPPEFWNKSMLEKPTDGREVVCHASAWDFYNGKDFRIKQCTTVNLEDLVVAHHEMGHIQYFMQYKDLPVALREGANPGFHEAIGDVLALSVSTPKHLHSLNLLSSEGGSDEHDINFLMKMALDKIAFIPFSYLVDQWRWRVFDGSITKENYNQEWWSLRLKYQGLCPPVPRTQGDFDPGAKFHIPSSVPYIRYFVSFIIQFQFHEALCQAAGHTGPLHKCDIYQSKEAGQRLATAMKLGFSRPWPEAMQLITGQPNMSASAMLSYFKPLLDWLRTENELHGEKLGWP
substance,measurement,setting,value
(2-(((R)-1-(((Benzyloxy)carbonyl)amino)-2-phenylethyl)(hydroxy)phosphoryl)cyclopentane-1-carbonyl)-L-tryptophan [RXPA380],Inhibition of C-domain by parent (in words),Truncated C-domain ACE,completely inhibits the C-domain at micromolar concentrations
same,Ki,N-domain (ACE),10 µM
same,potency and selectivity for C-domain of ACE (in words),C-domain of ACE; C-domain versus N-domain,the most potent and selective C domain of ACE
same,Ki,"C-domain of ACE; read-out: Ki, C-domain, ACE C-domain",0.003 µM
